Source: patent US11590116B2 (THERAVANCE BIOPHARMA R&D IP, LLC, priority 2019, dated 2023)

Assays:
[1] = biological target: T1, recombinant human ALK5 (TGF-βR1) protein (Homo sapiens, UniProt P36897); test: Biochemical ALK5 (TGF-βR1) assay to measure pKi (LANCE Ultra ULight kinase assay); settings: apparent pKi from pIC50 by Cheng-Prusoff, read-out: ALK5 pKi (converted)
T1 construct: purchased Life Technologies PR9075A
T1 sequence (P36897 34-503): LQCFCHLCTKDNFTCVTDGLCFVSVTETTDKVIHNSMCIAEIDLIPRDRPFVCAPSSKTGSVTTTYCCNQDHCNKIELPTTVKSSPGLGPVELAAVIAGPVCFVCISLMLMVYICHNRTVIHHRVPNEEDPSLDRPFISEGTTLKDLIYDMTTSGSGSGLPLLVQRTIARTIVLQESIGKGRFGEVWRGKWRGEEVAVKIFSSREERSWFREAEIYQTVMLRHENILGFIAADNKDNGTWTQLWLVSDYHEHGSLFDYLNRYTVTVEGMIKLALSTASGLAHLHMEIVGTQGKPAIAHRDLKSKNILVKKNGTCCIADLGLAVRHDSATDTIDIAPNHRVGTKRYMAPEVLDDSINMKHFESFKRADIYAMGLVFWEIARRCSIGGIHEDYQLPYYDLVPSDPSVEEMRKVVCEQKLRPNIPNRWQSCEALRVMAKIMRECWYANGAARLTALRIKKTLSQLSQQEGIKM
In short: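 Dose range 10 μM–25 pM; enzyme + compound 60 min RT; ATP added (5× stock 125 μM, 2 mM DTT); 60 min 37 °C; stop with EDTA + Eu anti-phospho-Topo IIα Thr1342 Ab; TR-FRET ex 320/340, em 665 nm. 4-param pIC50 → pKi (Cheng-Prusoff).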

[2] = system: TGF-β-stimulated SMAD3 phosphorylation in BEAS-2B cells; test: Cellular ALK5 potency assay, inhibition of TGF-β stimulated pSMAD3 formation in BEAS-2B cells; format: cell-based; settings: Homo sapiens; inhibition of TGF-β stimulated pSMAD3 formation, BEAS-2B cells; read-out: BEAS2B pIC50 (converted)
In short: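 BEAS-2B human lung epithelial cells, seeded overnight, were pre-treated with compound in HBSS/25 mM HEPES/1% BSA for 1 h at 37 °C, then stimulated with TGF-β (final 10 ng/mL) for 30 min. Lysates were assayed for pSMAD3 by AlphaLISA; pIC50 came from dose-dependent signal change versus TGF-β-stimulated untreated cells.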

Structure (SMILES)	Ki [1]	IC50 [2]
Cc1cccc(-c2[nH]cnc2-c2ccc3ncc(C4=CCCNC4)cc3c2)n1 [Compound 259, 6-[5-(6-methyl-2-pyridyl)-1H-imidazol-4-yl]-3-(1,2,3,6-tetrahydropyridin-5-yl)quinoline]	0.0398 to 0.316 nM	< 20 nM
CNCCN1CCn2cc(-c3cnc4ccc(-c5c[nH]nc5-c5cccc(C)n5)nc4c3)nc2C1 [Compound 262, N-methyl-2-[2-[6-[3-(6-methyl-2-pyridyl)-1H-pyrazol-4-yl]-1,5-naphthyridin-3-yl]-6,8-dihydro-5H-imidazo[1,2-a]pyrazin-7-yl]ethanamine]	0.0398 to 0.316 nM	200 to 1260 nM
Cc1nc(-c2n[nH]cc2-c2ccc3ncc(-c4nnn5c4NCCC5)cc3n2)ccc1F [Compound 263, 2-[3-(5-fluoro-6-methyl-2-pyridyl)-1H-pyrazol-4-yl]-7-(4,5,6,7-tetrahydrotriazolo[1,5-a]pyrimidin-3-yl)-1,5-naphthyridine]	0.0398 to 0.316 nM	25.1 to 158 nM
Cc1cccc(-c2n[nH]cc2-c2ccc3ncc(-c4ccc(C5CCCN(C(C)C)C5)cc4)cc3n2)n1 (centres unmarked) [Compound 265, 7-[4-(1-isopropyl-3-piperidyl)phenyl]-2-[3-(6-methyl-2-pyridyl)-1H-pyrazol-4-yl]-1,5-naphthyridine]	0.0398 to 0.316 nM	200 to 1260 nM
Cc1cccc(-c2n[nH]cc2-c2ccc3ncc(N4CCN(CC(F)(F)F)CC4)cc3n2)n1 [Compound 266, 2-[3-(6-methyl-2-pyridyl)-1H-pyrazol-4-yl]-7-[4-(2,2,2-trifluoroethyl)piperazin-1-yl]-1,5-naphthyridine]	0.0398 to 0.316 nM	25.1 to 158 nM
Cc1cccc(-c2n[nH]cc2-c2ccc3ncc(N4CCn5nc(C6=CCC(N)CC6)nc5C4)cc3n2)n1 (centres unmarked) [Compound 268, 4-[7-[6-[3-(6-methyl-2-pyridyl)-1H-pyrazol-4-yl]-1,5-naphthyridin-3-yl]-6,8-dihydro-5H-[1,2,4]triazolo[1,5-a]pyrazin-2-yl]cyclohex-3-en-1-amine]	0.0398 to 0.316 nM	200 to 1260 nM
Cc1cccc(-c2n[nH]cc2-c2ccc3ncc(NCC4CNCCN4)cc3n2)n1 (centres unmarked) [Compound 269, 6-[3-(6-methyl-2-pyridyl)-1H-pyrazol-4-yl]-N-(piperazin-2-ylmethyl)-1,5-naphthyridin-3-amine]	0.0398 to 0.316 nM	1580 to 10000 nM
Cc1cccc(-c2n[nH]cc2-c2ccc3ncc(N4CCC[C@@H]4CO)cc3n2)n1 [Compound 270, [(2R)-1-[6-[3-(6-methyl-2-pyridyl)-1H-pyrazol-4-yl]-1,5-naphthyridin-3-yl]pyrrolidin-2-yl]methanol]	0.0398 to 0.316 nM	25.1 to 158 nM
Cc1cccc(-c2nc3ccccn3c2-c2ccc3ncc(N4CCC(N(C)C)C4)cc3c2)n1 (centres unmarked) [Compound 272, N,N-dimethyl-1-[6-[2-(6-methyl-2-pyridyl)imidazo[1,2-a]pyridin-3-yl]-3-quinolyl]pyrrolidin-3-amine]	< 0.0316 nM	25.1 to 158 nM
Cc1cccc(-c2[nH]ncc2-c2ccc3ncc(C(=O)OCCN4CCNCC4)cc3n2)n1 [Compound 277, 2-piperazin-1-ylethyl 6-[5-(6-methyl-2-pyridyl)-1H-pyrazol-4-yl]-1,5-naphthyridine-3-carboxylate]	0.0398 to 0.316 nM	200 to 1260 nM
Cc1cccc(-c2[nH]cnc2-c2ccc3ncc(-c4ccc5c(c4)CCNC5)cc3c2)n1 [Compound 278, 6-[5-(6-methyl-2-pyridyl)-1H-imidazol-4-yl]-3-(1,2,3,4-tetrahydroisoquinolin-6-yl)quinoline]	0.0398 to 0.316 nM	< 20 nM
Cc1cccc(-c2n[nH]cc2-c2ccc3ncc(N4CC(CN)C4)cc3n2)n1 [Compound 279, [1-[6-[3-(6-methyl-2-pyridyl)-1H-pyrazol-4-yl]-1,5-naphthyridin-3-yl]azetidin-3-yl]methanamine]	0.0398 to 0.316 nM	25.1 to 158 nM
Cc1cccc(-c2n[nH]cc2-c2ccc3ncc(N4CCC(O)CC4)cc3n2)n1 [Compound 282, 1-[6-[3-(6-methyl-2-pyridyl)-1H-pyrazol-4-yl]-1,5-naphthyridin-3-yl]piperidin-4-ol]	< 0.0316 nM	< 20 nM
Cc1cccc(-c2nc3ccccn3c2-c2ccc3ncc(N4CCNCC4)cc3c2)n1 [Compound 287, 6-[2-(6-methyl-2-pyridyl)imidazo[1,2-a]pyridin-3-yl]-3-piperazin-1-yl-quinoline]	0.0398 to 0.316 nM	25.1 to 158 nM

The next lines start with results.

Ki [1]	Structure (SMILES)	IC50 [2]
< 0.0316 nM	Cc1cccc(-c2[nH]cnc2-c2ccc3ncc(C4=CCC(NC(C)C)CC4)cc3n2)n1 (centres unmarked) [Compound 258, N-isopropyl-4-(6-(5-(6-methylpyridin-2-yl)-1H imidazol-4-yl)-1,5-naphthyridin-3-yl)cyclohex-3-en-1-amine]	25.1 to 158 nM
0.398 to 3.16 nM	Cc1cccc(-c2n[nH]cc2-c2ccc3ncc(N4CC5CNCC54)cc3n2)n1 (centres unmarked) [Compound 260, 7-(3,6-diazabicyclo[3.2.0]heptan-6-yl)-2-[3-(6-methyl-2-pyridyl)-1H-pyrazol-4-yl]-1,5-naphthyridine]	200 to 1260 nM
0.0398 to 0.316 nM	Cc1cccc(-c2n[nH]cc2-c2ccc3ncc(CCCN4CCOCC4)cc3n2)n1 [Compound 261, 4-[3-[6-[3-(6-methyl-2-pyridyl)-1H-pyrazol-4-yl]-1,5-naphthyridin-3-yl]propyl]morpholine]	25.1 to 158 nM
< 0.0316 nM	CNC1CCN(c2cnc3ccc(-c4c[nH]nc4-c4ccc(F)c(C)n4)nc3c2)CC1 [Compound 264, 1-[6-[3-(5-fluoro-6-methyl-2-pyridyl)-1H-pyrazol-4-yl]-1,5-naphthyridin-3-yl]-N-methyl-piperidin-4-amine]	25.1 to 158 nM
0.0398 to 0.316 nM	Cc1cccc(-c2n[nH]cc2-c2ccc3ncc(N4CCNC[C@H]4C)cc3n2)n1 [Compound 271, 7-[(2R)-2-methylpiperazin-1-yl]-2-[3-(6-methyl-2-pyridyl)-1H-pyrazol-4-yl]-1,5-naphthyridine]	25.1 to 158 nM
< 0.0316 nM	Cc1cccc(-c2[nH]cnc2-c2ccc3ncc(-c4ccc(C(=O)O[C@@H]5CCN(C)C5)nc4)cc3c2)n1 [Compound 273, (R)-1-methylpyrrolidin-3-yl 5-(6-(5-(6-methylpyridin-2-yl)-1H-imidazol-4-yl)quinolin-3-yl)picolinate]	25.1 to 158 nM
0.0398 to 0.316 nM	Cc1cccc(-c2n[nH]cc2-c2ccc3ncc(N4CCCN(CC5CCCN5)CC4)cc3n2)n1 (centres unmarked) [Compound 274, 2-[3-(6-methyl-2-pyridyl)-1H-pyrazol-4-yl]-7-[4-(pyrrolidin-2-ylmethyl)-1,4-diazepan-1-yl]-1,5-naphthyridine]	200 to 1260 nM
0.0398 to 0.316 nM	Cc1cccc(-c2[nH]cnc2-c2ccc3ncc(-c4ccc5c(c4)CCC5N)cc3c2)n1 (centres unmarked) [Compound 275, 5-[6-[5-(6-methyl-2-pyridyl)-1H-imidazol-4-yl]-3-quinolyl]indan-1-amine]	25.1 to 158 nM
< 0.0316 nM	CNCCn1ccc(-c2cnc3ccc(-c4c[nH]nc4-c4cccc(C(C)C)n4)nc3c2)n1 [Compound 276, 2-[3-[6-[3-(6-isopropyl-2-pyridyl)-1H-pyrazol-4-yl]-1,5-naphthyridin-3-yl]pyrazol-1-yl]-N-methyl-ethanamine]	25.1 to 158 nM
0.0398 to 0.316 nM	Cc1cccc(-c2[nH]cnc2-c2ccc3ncc(N4CCCC5(CNC5)C4)cc3c2)n1 [Compound 280, 3-(2,6-diazaspiro[3.5]nonan-6-yl)-6-[5-(6-methyl-2-pyridyl)-1H-imidazol-4-yl]quinoline]	200 to 1260 nM
< 0.0316 nM	Cc1cccc(-c2n[nH]cc2-c2ccc3ncc(N4CCN(CCN)CC4)cc3n2)n1 [Compound 281, 2-[4-[6-[3-(6-methyl-2-pyridyl)-1H-pyrazol-4-yl]-1,5-naphthyridin-3-yl]piperazin-1-yl]ethanamine]	200 to 1260 nM
0.0398 to 0.316 nM	Cc1cccc(-c2n[nH]cc2-c2ccc3ncc(N4CC(C)N(CCN)C(C)C4)cc3n2)n1 (centres unmarked) [Compound 283, 2-[2,6-dimethyl-4-[6-[3-(6-methyl-2-pyridyl)-1H-pyrazol-4-yl]-1,5-naphthyridin-3-yl]piperazin-1-yl]ethanamine]	200 to 1260 nM
0.0398 to 0.316 nM	Cc1nc(-c2n[nH]cc2-c2ccc3ncc(-c4ncn5c4NCC5)cc3n2)ccc1F [Compound 284, 7-(2,3-dihydro-1H-imidazo[1,5-a]imidazol-7-yl)-2-[3-(5-fluoro-6-methyl-2-pyridyl)-1H-pyrazol-4-yl]-1,5-naphthyridine]	25.1 to 158 nM
0.0398 to 0.316 nM	Cc1cccc(-c2n[nH]cc2-c2ccc3ncc(NC(=O)CCN4CCOCC4)cc3n2)n1 [Compound 286, N-[6-[3-(6-methyl-2-pyridyl)-1H-pyrazol-4-yl]-1,5-naphthyridin-3-yl]-3-morpholino-propanamide]	25.1 to 158 nM
